In patent US6812028B1, “Embryogenesis and plant regeneration from microspores” (University of Guelph, priority 1999, dated 2004):

Experiments:
Type in all cases: cell-based
[1] = system: spring wheat Pavon 79 microspores; experiment: AGP concentrations in microspore culture in MMS4 liquid media; settings: for # at Day 12 Alive / # at Day 12 Dead / # at Day 12 Dividing / # at Day 12 ELS / # at Day 12 Multicellular / # at Day 12 Total Developing / Day 50 # of embryos: 4 rep average
Experimental: In an experiment with Pavon 79, concentrations of 0, 10, 25, 50, 100, 500 and 1000 mg/L were used in microspore culture with 4 ovaries around a drop of liquid medium with microspores on top of solidified medium. […] However, higher concentrations can also be used. […] It was observed that 10 to 14 days in induction medium with AGP may be maximal as it appears that regeneration may be reduced with longer periods on medium with AGP.

[2] = system: spring wheat Pavon 79 isolated microspores; experiment: AGP in isolated microspore culture, liquid medium versus filter paper, co-cultured with ovaries; settings: for Total # Embryos/Plate: MMS4, with ovaries
Experimental: […] […] The results are similar for liquid and filter paper at the 3 compared concentrations, and 10 mg/liter of AGP gave the best response.

[3] = system: wheat isolated microspores cv Pavon 79; experiment: Response of wheat isolated microspore cultures to AGP levels in MMS4 medium, with and without ovaries; settings: MMS4, cv Pavon 79
Experimental: The effect of AGP on embryogenesis and plant regeneration was assessed in wheat microspores which were isolated from genotype Pavon 79 according to the method of the present invention. AGP levels of 0, 1, 5, and 10 mg/liter were tested. [table] […] Additionally, the data illustrates the presence of ovaries in co-culture enhanced embryogenesis and plant regeneration. Only at 10 mg/liter of AGP was significant embryogenesis observed in the absence of ovary co-culture. FIG. 5(a) illustrates the comparative response of wheat microspores to the presence or absence of wheat ovaries and 0 or 10 mg/L AGP. FIG. 6 illustrates the good embryo structure developed in wheat after 4 weeks on medium with ovaries and AGP.

[4] = system: barley cv Igri isolated microspores; experiment: AGP effect on barley isolated microspore development in liquid FHG medium; settings: after 10 days
Description: The effect of AGP concentration during embryogenic induction of barley microspores in culture was examined. A wide range of concentrations was applied to microspores […]. The AGP addition was effected by adding varying AGP concentrations in liquid FHG medium with 10^5 microspores onto solid FGH medium. Using a drop of microspores on solidified MFHG medium, structures were counted under an inverted microscope. The proportion of alive and dead microspores was not estimated in these plates, but the developing microspores were much higher in the 0 mg control compared to wheat. Thus, the difference in response of barley to AGP at day 10 is not as pronounced as in wheat.

## arabinogalactan protein [AGP]
[1]; AGP 10 mg/L
  # at Day 12 Alive: 69.3
  # at Day 12 Dead: 58.9
  # at Day 12 Dividing: 23.9
  # at Day 12 ELS: 8.7
  # at Day 12 Multicellular: 33.8
  # at Day 12 Total Developing: 66.4
  Day 50 # of embryos: 4493
[1]; AGP 25 mg/L
  # at Day 12 Alive: 66.6
  # at Day 12 Dead: 69.3
  # at Day 12 Dividing: 13.6
  # at Day 12 ELS: 10.3
  # at Day 12 Multicellular: 38
  # at Day 12 Total Developing: 61.9
  Day 50 # of embryos: 3538
[1]; AGP 50 mg/L
  # at Day 12 Alive: 47.9
  # at Day 12 Dead: 75
  # at Day 12 Dividing: 10.7
  # at Day 12 ELS: 5
  # at Day 12 Multicellular: 13.2
  # at Day 12 Total Developing: 28.9
  Day 50 # of embryos: 471
[1]; AGP 100 mg/L
  # at Day 12 Alive: 66.4
  # at Day 12 Dead: 61
  # at Day 12 Dividing: 17.3
  # at Day 12 ELS: 2.9
  # at Day 12 Multicellular: 32.2
  # at Day 12 Total Developing: 52.4
  Day 50 # of embryos: 3709
[1]; AGP 500 mg/L
  # at Day 12 Alive: 57.3
  # at Day 12 Dead: 61
  # at Day 12 Dividing: 19.4
  # at Day 12 ELS: 4.5
  # at Day 12 Multicellular: 27.7
  # at Day 12 Total Developing: 51.6
  Day 50 # of embryos: 3267
[1]; AGP 1000 mg/L
  # at Day 12 Alive: 69.3
  # at Day 12 Dead: 56
  # at Day 12 Dividing: 14.8
  # at Day 12 ELS: 7
  # at Day 12 Multicellular: 28.5
  # at Day 12 Total Developing: 50.3
  Day 50 # of embryos: 1821
[1]; AGP 10-1000 mg/L, Pavon 79
  microspore viability at day 12 versus control with no AGP: not significantly different from the control value
[1]; AGP concentrations of 10 or 25 mg/liter
  embryogenesis across AGP concentrations: optimal embryogenesis
[1]; in the presence of AGP, day 12, Pavon 79
  total number of developing structures: improved
[2]; 10 mg/liter of AGP compared with 0 and 5 mg/liter
  embryo response in liquid and on filter paper: best response
[2]; AGP 1 mg/L, Liquid
  Total # Embryos/Plate: 2130
[2]; AGP 5 mg/L, Filter
  Total # Embryos/Plate: 3080
[2]; AGP 5 mg/L, Liquid
  Total # Embryos/Plate: 3393
[2]; AGP 10 mg/L, Filter
  Total # Embryos/Plate: 4528
[2]; AGP 10 mg/L, Liquid
  Total # Embryos/Plate: 4250
[3]; AGP 1 mg/L, ovary +
  # alive and dividing d 10: 22605
  # alive not dividing d 10: 2805
  # dead microspores d 10: 47175
  # embryos 30 days: 2130
  # multicell burst d 10: 1072
  # multicellular d 10: 18500
[3]; AGP 1 mg/L, ovary −
  # alive and dividing d 10: 22125
  # alive not dividing d 10: 5650
  # dead microspores d 10: 47558
  # embryos 30 days: 0
  # multicell burst d 10: 400
  # multicellular d 10: 13750
[3]; AGP 5 mg/L, ovary +
  # alive and dividing d 10: 18272
  # alive not dividing d 10: 7600
  # dead microspores d 10: 30250
  # embryos 30 days: 3393
  # multicell burst d 10: 7080
  # multicellular d 10: 39078
[3]; AGP 5 mg/L, ovary −
  # alive and dividing d 10: 26152
  # alive not dividing d 10: 8275
  # dead microspores d 10: 34500
  # embryos 30 days: 0
  # multicell burst d 10: 742
  # multicellular d 10: 28345
[3]; AGP 10 mg/L, ovary +
  # alive and dividing d 10: 8500
  # alive not dividing d 10: 0
  # dead microspores d 10: 23550
  # embryos 30 days: 4250
  # multicell burst d 10: 15452
  # multicellular d 10: 68000
[3]; AGP 10 mg/L, ovary −
  # alive and dividing d 10: 33275
  # alive not dividing d 10: 6250
  # dead microspores d 10: 24650
  # embryos 30 days: 50
  # multicell burst d 10: 4620
  # multicellular d 10: 41950
[4]; AGP 2 mg/L
  Dividing within microspore: 39600
  Free Multicellulars: 33550
  Total Developing: 73150
[4]; AGP 5 mg/L
  Dividing within microspore: 43000
  Free Multicellulars: 38230
  Total Developing: 81230
[4]; AGP 10 mg/L
  Dividing within microspore: 45280
  Free Multicellulars: 35750
  Total Developing: 81030
[4]; AGP 25 mg/L
  Dividing within microspore: 39880
  Free Multicellulars: 36030
  Total Developing: 75910
[4]; AGP 50 mg/L
  Dividing within microspore: 37120
  Free Multicellulars: 39880
  Total Developing: 77000
[4]; AGP 100 mg/L
  Dividing within microspore: 42900
  Free Multicellulars: 37730
  Total Developing: 80630
[4]; AGP 500 mg/L
  Dividing within microspore: 35890
  Free Multicellulars: 37810
  Total Developing: 73700
[4]; AGP 1000 mg/L
  Dividing within microspore: 38500
  Free Multicellulars: 41600
  Total Developing: 80100
